Earlier results, collected in patent US20150018389A1, “METHOD FOR TREATING PARKINSONS DISEASE AND OTHER NEUROLOGICAL DISEASES” (priority 2013, published 2015).

Columns and labels:
HIV [1] = settings: infected cell lines induced with tumor necrosis factor alpha (Schauf et al. 1992)
[2] = test system: tumor necrosis factor alpha; settings: erythema nodosum leprosum, treatment with thalidomide (Sampaio et al. 1992)
[3] = test system: tumor necrosis factor alpha production by stimulated monocytes; settings: stimulated monocytes (Sampaio et al. 1991)
[4] = not given; remark: listed apart in the source
[5] = serum vs in vitro pH 7.4
HIV [6] = settings: peripheral blood mononuclear cells of HIV-infected patients
CD4 lymphocyte counts = settings: erythema nodosum leprosum (Moncada et al. 1985)
[7] = not given; remark: listed apart in the source

- hydrolytic cleavage in serum compared with in vitro at pH 7.4 [5]: much slower
- absorption ([7]; humans, orally administered): poorly absorbed
- plasma protein binding ([7]; in vivo): highly bound to plasma proteins
SMILES: O=C1CCC(N2C(=O)c3ccccc3C2=O)C(=O)N1 (racemic) [Thalidomide, N-phthalidoglutarimide]
- side effects in humans: somnolence, teratogenicity and, upon extended administration, peripheral neuropathy
- HIV expression (HIV [1]): inhibited
- elevated tumor necrosis factor alpha levels [2]: reduced
- tumor necrosis factor alpha production [3]: inhibit
- toxicity in a series of animal studies [4]: has not been toxic
- HIV production (HIV [6]): reduce
- previously suppressed CD4 lymphocyte counts (CD4 lymphocyte counts): increases
